Counter-ions that a name gives are not always drawn. Like-named read-outs stand apart in the source and are kept apart here. Bounds are passed on as bounds.

In data set [1] the test system is Maillard reaction of bovine albumin with methylglyoxal. As to the kind of experiment: Antiglycation activity: fructosamine assay after incubation of albumin with methylglyoxal. Format: biochemical. As to conditions: compound 10 mM, bovine albumin 6.6 mg/ml, 1 mM methylglyoxal, pH 7.4, 37° C., 6 days; relative to incubation without compound. As to the method:
Study of the Antiglycation Activity
The compounds (I) are also capable of inhibiting the so-called Maillard reactions by “capturing effect” on the α-dicarbonyl-containing derivatives such as glyoxal—this is the antiglycation effect. This Maillard reaction inhibiting effect of the compounds according to the invention was studied in vitro by assaying ketamines (“fructosamines”) produced during the incubation of albumin with methylglyoxal in the presence or otherwise of a compound of formula (I) according to the invention.
A solution of bovine albumin at 6.6 mg/ml in 0.2 M phosphate buffer, pH 7.4, is incubated with 1 mM methylglyoxal in the presence or otherwise of a compound according to the invention at a concentration of 10 mM. The incubation is carried out under sterile conditions at 37° C. for 6 days. At the end of the incubation period, the quantity of ketamines is measure with a commercially available fructosamine assay kit (“FRA” kit, product reference: 0757055, Roche S. A. products) according to the manufacturer's instructions.
By way of example, results obtained under these experimental conditions are assembled in Table IV: level of fructosamine after incubation of the albumin with the methylglyoxal in the presence of compounds (I) according to the invention in relation to the level of fructosamine when albumin is incubated with methylglyoxal in the absence of the compounds (I) according to the invention.

The subject of data set [2] is non-insulin-dependent diabetes induced in rats by Streptozotocin. As to the kind of experiment: Antidiabetic activity in the Nostz rat (non-insulin-dependent diabetes induced by neonatal streptozotocin), glycaemia after oral treatment. The note with it: diabetic rats, blood 2 h after last administration; for change in vivo at 20 mg/kg: 20 mg/kg/D oral; for change in vivo at 200 mg/kg: 200 mg/kg/D oral. It counts as in vivo. Here is the method:
Study of the Antidiabetic Activity in the Nostz Rat
The antidiabetic activity of the compounds of formula (I) administered orally was determined on an experimental model of non-insulin-dependent diabetes induced in rats by Streptozotocin.
The non-insulin-dependent diabetes model is obtained in rats by neonatal injection (on the day of birth) of streptozotocin.
The diabetic rats used were 8 weeks old. The animals were kept, from the day of their birth to the day of the experiment, in an animal house at a controlled temperature of 21 to 22° C. and subjected to a fixed cycle of light (from 7 am to 7 pm) and darkness (from 7 pm to 7 am). Their diet consisted of a maintenance diet, water and food were provided “ab libitum”, with the exception of the 2 hours of fasting preceding the tests when the food is withdrawn (postabsorptive state).
The rats were treated by the oral route for one (D1) or four (D4) days with the product to be tested. Two hours after the last administration of the product and 30 minutes after anaesthetizing the animals with sodium pentobarbital (Nembutal a), 300 μl of blood sample are collected from the end of the tail.
By way of example, results obtained are assembled in Table III.

Where [3] appears, read: 24 h, 1 day of treatment, read-out: percentage variation of glycaemia at D1 relative to D0.
[4] abbreviates: 96 h, 4 days of treatment, read-out: percentage variation of glycaemia at D4 relative to D0.

For the molecule `CN(C)C1=NC(C(F)(F)F)N=C(N)N1` (centres unmarked) [Compound 36], the “Reduction in the level of fructosamines (%)” value (“Reduction in the level … (%)” below) in data set [1] came to 66%.

As to `CN(C)C1=NC(Cc2ccccc2)N=C(N)N1` (centres unmarked) [Compound 37], the “Reduction in the level … (%)” value in data set [1] was 65%. For the same molecule, in data set [2] (setting [3]), the change in vivo at 20 mg/kg was -7% and the change in vivo at 200 mg/kg is -10%. In data set [2] (setting [4]), the change in vivo at 20 mg/kg is -8% and the change in vivo at 200 mg/kg is -15%.

On to `CN(C)C1=NC(c2ccccc2)N=C(N)N1` (centres unmarked) [Compound 10], for which, in data set [1], the “Reduction in the level … (%)” value was 80%.

With `CN(C)C1=NC(c2ccc(O)cc2)N=C(N)N1` (centres unmarked) [Compound 13], the melting point – broadly, the temperature of the solid-liquid transition – was > 260 °C. Besides, in data set [1], the “Reduction in the level … (%)” value is recorded as 95%.

Take `CC(C)CC1N=C(N)NC(N(C)C)=N1` (centres unmarked) [Compound 43]: in data set [1], the “Reduction in the level … (%)” value was 68%. In addition, in data set [2] (setting [3]), the change in vivo at 20 mg/kg was -4% and the change in vivo at 200 mg/kg is -12%. Further, in data set [2] (setting [4]), the change in vivo at 20 mg/kg is -16% and the change in vivo at 200 mg/kg was -17%.

Turning to `CN(C)C1=NC(C2CCCCC2)N=C(N)N1` (centres unmarked) [Compound 34], in data set [1], the “Reduction in the level … (%)” value is 64%. The figures for the change in vivo at 20 mg/kg in data set [2] (setting [3]) and in data set [2] (setting [4]) were -5% and -15%, respectively. In addition, the change in vivo at 200 mg/kg in data set [2] (setting [3]) was -6%; in data set [2] (setting [4]), -21%.

For the molecule `CN(C)C1=NC(C2CC=CCC2)N=C(N)N1` (centres unmarked) [Compound 45], the “Reduction in the level … (%)” value in data set [1] is 67%.

On to `CCC1N=C(N)NC(N(C)C)=N1` (centres unmarked) [Compound 1, 2-amino-3,6-dihydro-4-dimethylamino-6-ethyl-1,3,5-triazine hydrochloride], for which, in data set [1], the “Reduction in the level … (%)” value came to 62%. Moreover, the change in vivo at 20 mg/kg in data set [2] (setting [3]) was -7%; in data set [2] (setting [4]), -2%. For the same molecule, the results for the change in vivo at 200 mg/kg in data set [2] (setting [3]) and in data set [2] (setting [4]) were -13% and -15%, respectively.

Turning to `CN(C)C1=NC(COc2ccccc2)N=C(N)N1` (centres unmarked) (as salt: toluenesulphonate) [Compound 41], the melting point was 194 to 196 °C.

Take `CN(C)C1=NC(C)(CCCO)N=C(N)N1` (centres unmarked) [Compound 6]: the melting point lay in the range of 138 to 140 °C.

As for `COc1ccc(C2N=C(N)NC(N(C)C)=N2)cc1` (centres unmarked) [Compound 11], the “Reduction in the level … (%)” value in data set [1] is reported as 89%.

Turning to `CNC1=NC2(CCCCC2)N=C(N(C)C)N1` (as salt: HCl) [Compound 22], the melting point was > 260 °C.

For the molecule `CN(C)C1=NC(c2ccco2)N=C(N)N1` (centres unmarked) [Compound 40], the “Reduction in the level … (%)” value in data set [1] was 66%. The change in vivo at 20 mg/kg in data set [2] (setting [3]) was -8%; in data set [2] (setting [4]) it was -12%. Also, the change in vivo at 200 mg/kg in data set [2] (setting [3]) and in data set [2] (setting [4]) was -18% in each case.

The molecule `CCNC1=NC2(CCCCC2)N=C(N(C)C)N1` (as salt: HCl) [Compound 23] showed a melting point of 248 to 250 °C.

In the case of `CN(C)C1=NC(Cc2ccccc2)N=C(N)N1` (centres unmarked) (as salt: toluenesulphonate) [Compound 37], the melting point is 159 to 161 °C.

`CN(C)C1=NCN=C(N)N1` [Compound 33]: the “Reduction in the level … (%)” value in data set [1] is 79%. In data set [2] (setting [3]), the change in vivo at 20 mg/kg was -7% and the change in vivo at 200 mg/kg is -9%. Further, in data set [2] (setting [4]), the change in vivo at 20 mg/kg was -6% and the change in vivo at 200 mg/kg is -14%.

As for `CC(C)CCCC(C)[C@H]1CCC2C3CCC4CC5(CC[C@]4(C)C3CC[C@@]21C)N=C(N)NC(N(C)C)=N5` (some centres unmarked) (as salt: HCl) [Compound 19], the melting point was > 260 °C.

`CC(CCC(=O)O)[C@H]1CCC2C3C(C[C@H](O)[C@@]21C)[C@@]1(C)CCC2(CC1C[C@H]3O)N=C(N)NC(N(C)C)=N2` (some centres unmarked) (as salt: HCl) [Compound 25]: the melting point is > 260 °C.

As for `CC1N=C(N)NC(N(C)C)=N1` (centres unmarked) [Compound 18], the “Reduction in the level … (%)” value in data set [1] was 69%. Besides, in data set [2] (setting [3]), the change in vivo at 20 mg/kg was -6% and the change in vivo at 200 mg/kg is -29%. Also, in data set [2] (setting [4]), the change in vivo at 20 mg/kg was -4% and the change in vivo at 200 mg/kg was -28%.

Regarding `CN(C)C1=NC(c2ccc(O)cc2)N=C(N)N1` (centres unmarked) [Compound 12], the “Reduction in the level … (%)” value in data set [1] is reported as 90%.

As to `CCNC1=NC(C)(C)N=C(N(C)C)N1` (as salt: fumarate) [Compound 14], the melting point was 172 to 174 °C.

Consider `CC(CCC(=O)O)[C@H]1CCC2C3CCC4CC5(CC[C@]4(C)C3CC[C@@]21C)N=C(N)NC(N(C)C)=N5` (some centres unmarked) (as salt: HCl), for which the melting point is > 260 °C.

`NC1=NC2(CCCCC2)N=C(NCCc2ccccc2)N1` (as salt: salt) [Compound 20]: the melting point was 170 to 180 °C.

In the case of `CN(C)C1=NC(C)(CCCO)N=C(N)N1` (centres unmarked) (as salt: HCl) [Compound 7], the melting point fell in the range of 150 to 152 °C.

On to `CN(C)C1=NC(C(C)(C)C)N=C(N)N1` (centres unmarked) (as salt: HCl) [Compound 42], for which the melting point was > 260 °C.

In turn, `CC1N=C(N(C)C)NC(N(C)C)=N1` (as salt: HCl) [Compound 2, 2,4-bisdimethylamino-3,6-dihydro-6-methyl-1,3,5-triazine hydrochloride] registered a melting point of 200 to 202 °C.

The molecule `CN(C)C1=NC(C)(C)N=C(N(C)C)N1` (as salt: HCl) [Compound 15] displayed a melting point of 250 to 252 °C.

For the molecule `CN(C)C1=NC2(CCCC2)N=C(N)N1` (as salt: HCl) [Compound 31], the melting point is 207 to 209 °C.

Turning to `CCC1(CC)N=C(N)NC(N(C)C)=N1` (as salt: salt) [Compound 30], the melting point was in the range of 140 to 144 °C.

`C=CCNC1=NC(C)N=C(N(C)C)N1` (centres unmarked) (as salt: HCl) [Compound 26] returned a melting point of 91 to 92 °C.

Source of the values: patent US7767676B2, “Dihydro-1,3,5-triazine amine derivatives and their therapeutic uses” (Merck Sante, priority 2000, dated 2010).
